Laboratory results taken from PubChem BioAssay AID330 (DTP/NCI, 2004).
Values joined by “and” are separate entries in the source; they are usually repeats but may differ in a detail not shown here. Equal entries are not always repeated. Toxic doses and inconclusive results are not listed. Rule for the calls: active = survival T/C of 150% or more; inactive = T/C below 125% in these data.

System: P388 leukemia ip, CD2F1 mice, survival T/C
Assay: NCI In Vivo Anticancer Drug Screen. Data for tumor model P388 Leukemia (intraperitoneal) in CD2F1 (CDF1) mice
Details: endpoint: median survival time, higher = longer survival
Procedure, shortened: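 Mice carrying the transplanted tumor received test compound or vehicle. Survival was recorded in each group, and the value is the treated-group measurement divided by that of the vehicle-treated control group.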

[1] = dose: 12.5 mg/kg/injection, schedule: Q01DX009 (ip), vehicle: saline with Tween-80
[2] = dose: 25.0 mg/kg/injection, schedule: Q01DX009 (ip), vehicle: saline with Tween-80
[3] = dose: 50.0 mg/kg/injection, schedule: Q01DX009 (ip), vehicle: saline with Tween-80
[4] = dose: 50.0 mg/kg/injection, schedule: Q01DX005 (ip), vehicle: Klucel (hydroxypropylcellulose) (HPC)
[5] = dose: 100.0 mg/kg/injection, schedule: Q01DX005 (ip), vehicle: Klucel (hydroxypropylcellulose) (HPC)
[6] = dose: 200.0 mg/kg/injection, schedule: Q01DX005 (ip), vehicle: Klucel (hydroxypropylcellulose) (HPC)
[7] = dose: 100.0 mg/kg/injection, schedule: Q04DX003 (ip), vehicle: saline with Tween-80
[8] = dose: 60.0 mg/kg/injection, schedule: Q01DX005 (ip), vehicle: saline with Tween-80
[9] = dose: 50.0 mg/kg/injection, schedule: Q01DX009 (ip), vehicle: Klucel (hydroxypropylcellulose) (HPC)
[10] = dose: 100.0 mg/kg/injection, schedule: Q01DX009 (ip), vehicle: Klucel (hydroxypropylcellulose) (HPC)
[11] = dose: 200.0 mg/kg/injection, schedule: Q01DX009 (ip), vehicle: Klucel (hydroxypropylcellulose) (HPC)

Measured: T/C

COc1cc2c(c(OC)c1OC)-c1cc3c(cc1CC1COC(=O)C1C2)OCO3 (stereo not given)
inactive: dose: 2.5 mg/kg/injection, schedule: Q04DX002 (ip), vehicle: saline with Tween-80 97 % of control and 96 % of control and 102 % of control | dose: 5.0 mg/kg/injection, schedule: Q04DX002 (ip), vehicle: saline with Tween-80 95 % of control [middle of 6 runs] | dose: 10.0 mg/kg/injection, schedule: Q04DX002 (ip), vehicle: saline with Tween-80 101 % of control [middle of 6 runs] | [1] 100 % of control | dose: 20.0 mg/kg/injection, schedule: Q04DX002 (ip), vehicle: saline with Tween-80 96 % of control and 104 % of control | [2] 97 % of control | dose: 25.0 mg/kg/injection, schedule: Q04DX002 (ip), vehicle: saline with Tween-80 100 % of control | [3] 95 % of control | dose: 50.0 mg/kg/injection, schedule: Q04DX002 (ip), vehicle: saline with Tween-80 104 % of control | dose: 100.0 mg/kg/injection, schedule: Q04DX002 (ip), vehicle: saline with Tween-80 87 % of control and 119 % of control | dose: 200.0 mg/kg/injection, schedule: Q04DX002 (ip), vehicle: saline with Tween-80 91 % of control

COc1c(NC(C)=O)c2ccccc2c2ccccc12
inactive: [4] 106 % of control | [5] 109 % of control | [6] 97 % of control

O=C1C=C(O/C=C/C(C(F)(F)F)C(F)(F)F)C(=O)c2ccccc21
inactive: [3] 115 % of control | dose: 50.0 mg/kg/injection, schedule: Q04DX003 (ip), vehicle: saline with Tween-80 91 % of control | [7] 95 % of control

Cc1cc(Br)c(NC(=S)SCc2ccc(Cl)cc2)cc1C
inactive: dose: 50.0 mg/kg/injection, schedule: Q01DX009 (ip), vehicle: suspension in saline 101 % of control | dose: 100.0 mg/kg/injection, schedule: Q01DX009 (ip), vehicle: suspension in saline 107 % of control | dose: 200.0 mg/kg/injection, schedule: Q01DX009 (ip), vehicle: suspension in saline 98 % of control

CCOc1c(N=Nc2ccccc2)c(C)nn1C(N)=S
inactive: dose: 60.0 mg/kg/injection, schedule: Q01DX005 (ip), vehicle: Klucel + Tween-80 95 % of control | dose: 120.0 mg/kg/injection, schedule: Q01DX005 (ip), vehicle: Klucel + Tween-80 102 % of control | dose: 240.0 mg/kg/injection, schedule: Q01DX005 (ip), vehicle: Klucel + Tween-80 95 % of control

CN1C(Cl)=NS(=O)(=O)c2ccccc21
inactive: dose: 30.0 mg/kg/injection, schedule: Q01DX005 (ip), vehicle: saline with Tween-80 120 % of control | [8] 112 % of control and 95 % of control

Cc1nn2c(=O)c3c([N+](=O)[O-])c(C)nn3c(=O)c2c1[N+](=O)[O-]
inactive: [4] 105 % of control | [5] 97 % of control | [6] 100 % of control

Cc1cnc(SC2C3CC4CC(C3)CC2C4)c(C)c1 (stereo not given)
inactive: [9] 99 % of control | [10] 94 % of control | [11] 88 % of control

CCCC(C#N)(CCCl)c1ccccc1 (stereo not given)
inactive: [7] 100 % of control | dose: 200.0 mg/kg/injection, schedule: Q04DX003 (ip), vehicle: saline with Tween-80 104 % of control | dose: 400.0 mg/kg/injection, schedule: Q04DX003 (ip), vehicle: saline with Tween-80 95 % of control

Cc1ccc(OCC(COc2ccc(C)cc2)(COc2ccc(C)cc2)COc2ccc(C)cc2)cc1
inactive: [1] 86 % of control | [2] 86 % of control | [3] 86 % of control

CC1=C(C(=O)Nc2ccccc2Cl)C(c2cccc([N+](=O)[O-])c2)C(C(=O)Nc2ccccc2Cl)=C(C)N1
inactive: dose: 15.0 mg/kg/injection, schedule: Q01DX005 (ip), vehicle: Klucel (hydroxypropylcellulose) (HPC) 93 % of control | dose: 30.0 mg/kg/injection, schedule: Q01DX005 (ip), vehicle: Klucel (hydroxypropylcellulose) (HPC) 90 % of control | dose: 60.0 mg/kg/injection, schedule: Q01DX005 (ip), vehicle: Klucel (hydroxypropylcellulose) (HPC) 88 % of control

CCOC(=O)C(=O)C1Cc2ccc3ccc(OC)cc3c2C1=O (stereo not given)
inactive: dose: 12.5 mg/kg/injection, schedule: Q01DX009 (ip), vehicle: distilled water + Tween-80 109 % of control | dose: 25.0 mg/kg/injection, schedule: Q01DX009 (ip), vehicle: distilled water + Tween-80 112 % of control | dose: 50.0 mg/kg/injection, schedule: Q01DX009 (ip), vehicle: distilled water + Tween-80 102 % of control | dose: 100.0 mg/kg/injection, schedule: Q01DX009 (ip), vehicle: distilled water + Tween-80 94 % of control | dose: 200.0 mg/kg/injection, schedule: Q01DX009 (ip), vehicle: distilled water + Tween-80 102 % of control

COc1ccc2c(c1OC)C(=O)OC2C1c2cc3c(cc2CC[N+]1(C)C)OCO3 (stereo not given)
inactive: dose: 12.5 mg/kg/injection, schedule: Q01DX001 (ip), vehicle: Klucel (hydroxypropylcellulose) (HPC) 88 % of control | dose: 25.0 mg/kg/injection, schedule: Q01DX001 (ip), vehicle: Klucel (hydroxypropylcellulose) (HPC) 92 % of control | dose: 50.0 mg/kg/injection, schedule: Q01DX001 (ip), vehicle: Klucel (hydroxypropylcellulose) (HPC) 87 % of control

O=c1[nH]nc(-c2ccc(Cl)cc2)c2c1[nH]c1ccccc12
inactive: [8] 98 % of control | dose: 120.0 mg/kg/injection, schedule: Q01DX005 (ip), vehicle: saline with Tween-80 97 % of control

CCCNC(=S)Nc1ccc(F)cc1F
inactive: dose: 3.12 mg/kg/injection, schedule: Q01DX009 (ip), vehicle: other 108 % of control | dose: 6.25 mg/kg/injection, schedule: Q01DX009 (ip), vehicle: other 107 % of control and 110 % of control and 89 % of control | dose: 12.5 mg/kg/injection, schedule: Q01DX009 (ip), vehicle: other 99 % of control and 100 % of control and 101 % of control | dose: 25.0 mg/kg/injection, schedule: Q01DX009 (ip), vehicle: other 108 % of control and 121 % of control and 96 % of control

CCCCOP(=O)(NNP(=O)(OCCCC)OCCCC)OCCCC
inactive: [2] 102 % of control | [3] 102 % of control | dose: 100.0 mg/kg/injection, schedule: Q01DX009 (ip), vehicle: saline with Tween-80 100 % of control | dose: 200.0 mg/kg/injection, schedule: Q01DX009 (ip), vehicle: saline with Tween-80 101 % of control

COC1/C=C\OC2(C)Oc3c(C)c(O)c4c(c3C2=O)C(=O)C(Br)=C(NC(=O)/C(C)=C\C=C/C(C)C(O)C(C)C(O)C(C)C(OC(C)=O)C1C)C4=O (stereo not given)
inactive: dose: 25.0 mg/kg/injection, schedule: Q01DX009 (ip), vehicle: Klucel (hydroxypropylcellulose) (HPC) 102 % of control | [9] 97 % of control | [10] 102 % of control | [11] 100 % of control

Cc1ccc(S(=O)(=O)OI(C#Cc2ccccc2)c2ccccc2)cc1
inactive: dose: 77.5 mg/kg/injection, schedule: Q04DX002 (ip), vehicle: Klucel (hydroxypropylcellulose) (HPC) 99 % of control | dose: 155.0 mg/kg/injection, schedule: Q04DX002 (ip), vehicle: Klucel (hydroxypropylcellulose) (HPC) 89 % of control | dose: 310.0 mg/kg/injection, schedule: Q04DX002 (ip), vehicle: Klucel (hydroxypropylcellulose) (HPC) 99 % of control

O=C1C=Cc2ccc(O)cc2C1=O
inactive: dose: 1.25 mg/kg/injection, schedule: Q01DX009 (ip), vehicle: saline 100 % of control | dose: 1.25 mg/kg/injection, schedule: Q04DX003 (ip), vehicle: saline with Tween-80 90 % of control | dose: 2.5 mg/kg/injection, schedule: Q01DX009 (ip), vehicle: saline 110 % of control | dose: 2.5 mg/kg/injection, schedule: Q04DX003 (ip), vehicle: saline with Tween-80 109 % of control | dose: 5.0 mg/kg/injection, schedule: Q04DX003 (ip), vehicle: saline with Tween-80 109 % of control and 95 % of control
